≈ marks a conversion by molar mass, not a printed value.
Legend:
Format in all cases: physicochemical
[1] = Aqueous stability of roxithromycin (% Purity by HPLC); conditions: 2 mg/mL, 40° C.
Protocol: Roxithromycin stability was determined for 2 mg/mL [roxithromycin] at 5, 25, and 40° C. as a function of pH and buffer (citrate) concentration. Roxithromycin %Purity was determined by area normalization using a reverse-phase HPLC method that meets the requirements of the EP Monograph. Solution pH values were determined per USP <791>.

[2] = Stability of formoterol fumarate and roxithromycin co-formulated in oral solution; conditions: co-formulated 0.005 mg/mL formoterol fumarate + 2.0 mg/mL roxithromycin, pH 6.0, 20 mM citrate, 4.5% mannitol, 0.1% potassium sorbate
Protocol: Roxithromycin Potency was assayed by a reverse-phase HPLC method that meets the requirements of the European Pharmacopeia (EP) Monograph for roxithromycin.

[3] = Aqueous solubility of roxithromycin (pH, buffer, ethanol); conditions: 25 °C, thermodynamic from solid
Protocol: The solutions were syringe-filtered and analyzed by HPLC for [roxithromycin]. Roxithromycin Potency was assayed by a reverse-phase HPLC method that meets the requirements of the European Pharmacopeia (EP) Monograph for roxithromycin. Solution pH values were determined per USP <791> and solution osmolality values were determined per USP <785>. Aqueous solubility limits were determined for roxithromycin as a function of buffer type (phosphate versus citrate), buffer concentration, pH, and added co-solvent (ethanol).

CC[C@H]1OC(=O)[C@H](C)[C@@H](O[C@H]2C[C@@](C)(OC)[C@@H](O)[C@H](C)O2)[C@H](C)[C@@H](O[C@@H]2O[C@H](C)C[C@H](N(C)C)[C@H]2O)[C@](C)(O)C[C@@H](C)/C(=N\OCOCCOC)[C@H](C)[C@@H](O)[C@]1(C)O [roxithromycin]
Roxithromycin % Purity By Area Normalization ([1]; citrate pH 5, 100 mM, 0.5 mo): 46% | Roxithromycin % Purity By Area Normalization ([1]; citrate pH 5, 100 mM, 0.9 mo): 31% | Roxithromycin % Purity By Area Normalization ([1]; citrate pH 5, 100 mM, 1.5 mo): 14% | Roxithromycin % Purity By Area Normalization ([1]; citrate pH 5, 100 mM, 2.6 mo): 4% | Roxithromycin % Purity By Area Normalization ([1]; citrate pH 6, 20 mM, 0 mo): 98% | Roxithromycin % Purity By Area Normalization ([1]; citrate pH 6, 20 mM, 0.3 mo): 95% | Roxithromycin % Purity By Area Normalization ([1]; citrate pH 6, 20 mM, 0.5 mo): 92% | Roxithromycin % Purity By Area Normalization ([1]; citrate pH 6, 20 mM, 0.9 mo): 89% | Roxithromycin % Purity By Area Normalization ([1]; citrate pH 6, 20 mM, 1.5 mo): 84% | Roxithromycin % Purity By Area Normalization ([1]; citrate pH 6, 20 mM, 2.6 mo): 79% | Roxithromycin % Purity By Area Normalization ([1]; citrate pH 6, 20 mM, 5.3 mo): 76% | Roxithromycin % Purity By Area Normalization ([1]; citrate pH 6, 50 mM, 0 mo): 98% | Roxithromycin % Purity By Area Normalization ([1]; citrate pH 6, 50 mM, 0.3 mo): 89% | Roxithromycin % Purity By Area Normalization ([1]; citrate pH 6, 50 mM, 0.5 mo): 82% | Roxithromycin % Purity By Area Normalization ([1]; citrate pH 6, 50 mM, 0.9 mo): 77% | Roxithromycin % Purity By Area Normalization ([1]; citrate pH 6, 50 mM, 1.5 mo): 71% | Roxithromycin % Purity By Area Normalization ([1]; citrate pH 6, 50 mM, 2.6 mo): 65% | Roxithromycin % Purity By Area Normalization ([1]; citrate pH 6, 50 mM, 5.3 mo): 61% | Roxithromycin % Purity By Area Normalization ([1]; citrate pH 6, 100 mM, 0 mo): 98% | Roxithromycin % Purity By Area Normalization ([1]; citrate pH 6, 100 mM, 0.3 mo): 85% | Roxithromycin % Purity By Area Normalization ([1]; citrate pH 6, 100 mM, 0.5 mo): 77% | Roxithromycin % Purity By Area Normalization ([1]; citrate pH 6, 100 mM, 0.9 mo): 72% | Roxithromycin % Purity By Area Normalization ([1]; citrate pH 6, 100 mM, 1.5 mo): 66% | Roxithromycin % Purity By Area Normalization ([1]; citrate pH 6, 100 mM, 2.6 mo): 58% | Roxithromycin % Purity By Area Normalization ([1]; citrate pH 6, 100 mM, 5.3 mo): 48% | Roxithromycin Potency ([2]; week 0, 5 ° C.): 1920 µg/mL | Roxithromycin Potency ([2]; week 0, 25 ° C.): 1920 µg/mL | Roxithromycin Potency ([2]; week 0, 40 ° C.): 1920 µg/mL | Roxithromycin Potency ([2]; week 2, 25 ° C.): 1740 µg/mL | Roxithromycin Potency ([2]; week 2, 40 ° C.): 1610 µg/mL | Roxithromycin Potency ([2]; week 4, 5 ° C.): 1920 µg/mL | Roxithromycin Potency ([2]; week 4, 25 ° C.): 1710 µg/mL | Roxithromycin Potency ([2]; week 4, 40 ° C.): 1470 µg/mL | solubility at 24 h ([3]; citrate buffer, pH 4, aqueous buffer, 20 mM citrate, pH 4): 4130 µg/mL (≈ 4.93 mM) | solubility at 24 h ([3]; citrate buffer, pH 4, aqueous buffer, 50 mM citrate, pH 4): 4610 µg/mL (≈ 5.51 mM) | solubility at 24 h ([3]; citrate buffer, pH 4, aqueous buffer, 100 mM citrate, pH 4): 1890 µg/mL (≈ 2.26 mM) | solubility at 24 h ([3]; citrate buffer, pH 4, aqueous buffer, 200 mM citrate, pH 4): 2740 µg/mL (≈ 3.27 mM) | solubility at 24 h ([3]; citrate buffer, pH 5, aqueous buffer, 20 mM citrate, pH 5): 3540 µg/mL (≈ 4.23 mM) | solubility at 24 h ([3]; citrate buffer, pH 5, aqueous buffer, 50 mM citrate, pH 5): 3570 µg/mL (≈ 4.26 mM) | solubility at 24 h ([3]; citrate buffer, pH 5, aqueous buffer, 100 mM citrate, pH 5): 2770 µg/mL (≈ 3.31 mM) | solubility at 24 h ([3]; citrate buffer, pH 5, aqueous buffer, 200 mM citrate, pH 5): 1900 µg/mL (≈ 2.27 mM) | solubility at 24 h ([3]; citrate buffer, pH 6, aqueous buffer, 20 mM citrate, pH 6): 2450 µg/mL (≈ 2.93 mM) | solubility at 24 h ([3]; citrate buffer, pH 6, aqueous buffer, 50 mM citrate, pH 6): 2760 µg/mL (≈ 3.3 mM) | solubility at 24 h ([3]; citrate buffer, pH 6, aqueous buffer, 100 mM citrate, pH 6): 2300 µg/mL (≈ 2.75 mM) | solubility at 24 h ([3]; citrate buffer, pH 6, aqueous buffer, 200 mM citrate, pH 6): 1720 µg/mL (≈ 2.05 mM) | solubility at 24 h ([3]; citrate buffer, pH 7, aqueous buffer, 20 mM citrate, pH 7): 500 µg/mL (≈ 0.597 mM) | solubility at 24 h ([3]; citrate buffer, pH 7, aqueous buffer, 50 mM citrate, pH 7): 980 µg/mL (≈ 1.17 mM) | solubility at 24 h ([3]; citrate buffer, pH 7, aqueous buffer, 100 mM citrate, pH 7): 1230 µg/mL (≈ 1.47 mM) | solubility at 24 h ([3]; citrate buffer, pH 7, aqueous buffer, 200 mM citrate, pH 7): 1250 µg/mL (≈ 1.49 mM) | solubility at 24 h ([3]; phosphate buffer with ethanol co-solvent, pH 5, aqueous with cosolvent or surfactant or cyclodextrin, pH 5, 10 mM phosphate, 5% ethanol): 3500 µg/mL (≈ 4.18 mM) | solubility at 24 h ([3]; phosphate buffer with ethanol co-solvent, pH 5, aqueous with cosolvent or surfactant or cyclodextrin, pH 5, 10 mM phosphate, 10% ethanol): 3800 µg/mL (≈ 4.54 mM) | solubility at 24 h ([3]; phosphate buffer with ethanol co-solvent, pH 5, aqueous with cosolvent or surfactant or cyclodextrin, pH 5, 20 mM phosphate, 5% ethanol): 5500 µg/mL (≈ 6.57 mM) | solubility at 24 h ([3]; phosphate buffer with ethanol co-solvent, pH 5, aqueous with cosolvent or surfactant or cyclodextrin, pH 5, 20 mM phosphate, 10% ethanol): 6000 µg/mL (≈ 7.17 mM) | solubility at 24 h ([3]; phosphate buffer with ethanol co-solvent, pH 5, aqueous with cosolvent or surfactant or cyclodextrin, pH 5, 50 mM phosphate, 5% ethanol): 8300 µg/mL (≈ 9.92 mM) | solubility at 24 h ([3]; phosphate buffer with ethanol co-solvent, pH 5, aqueous with cosolvent or surfactant or cyclodextrin, pH 5, 50 mM phosphate, 10% ethanol): 9200 µg/mL (≈ 11 mM) | solubility at 24 h ([3]; phosphate buffer with ethanol co-solvent, pH 6, aqueous with cosolvent or surfactant or cyclodextrin, pH 6, 10 mM phosphate, 5% ethanol): 4100 µg/mL (≈ 4.9 mM) | solubility at 24 h ([3]; phosphate buffer with ethanol co-solvent, pH 6, aqueous with cosolvent or surfactant or cyclodextrin, pH 6, 10 mM phosphate, 10% ethanol): 3900 µg/mL (≈ 4.66 mM) | solubility at 24 h ([3]; phosphate buffer with ethanol co-solvent, pH 6, aqueous with cosolvent or surfactant or cyclodextrin, pH 6, 20 mM phosphate, 5% ethanol): 4600 µg/mL (≈ 5.5 mM) | solubility at 24 h ([3]; phosphate buffer with ethanol co-solvent, pH 6, aqueous with cosolvent or surfactant or cyclodextrin, pH 6, 20 mM phosphate, 10% ethanol): 5000 µg/mL (≈ 5.97 mM) | solubility at 24 h ([3]; phosphate buffer with ethanol co-solvent, pH 6, aqueous with cosolvent or surfactant or cyclodextrin, pH 6, 50 mM phosphate, 5% ethanol): 8100 µg/mL (≈ 9.68 mM) | solubility at 24 h ([3]; phosphate buffer with ethanol co-solvent, pH 6, aqueous with cosolvent or surfactant or cyclodextrin, pH 6, 50 mM phosphate, 10% ethanol): 9300 µg/mL (≈ 11.1 mM) | solubility at 24 h ([3]; phosphate buffer with ethanol co-solvent, pH 7, aqueous with cosolvent or surfactant or cyclodextrin, pH 7, 10 mM phosphate, 5% ethanol): 1800 µg/mL (≈ 2.15 mM) | solubility at 24 h ([3]; phosphate buffer with ethanol co-solvent, pH 7, aqueous with cosolvent or surfactant or cyclodextrin, pH 7, 10 mM phosphate, 10% ethanol): 1700 µg/mL (≈ 2.03 mM) | solubility at 24 h ([3]; phosphate buffer with ethanol co-solvent, pH 7, aqueous with cosolvent or surfactant or cyclodextrin, pH 7, 20 mM phosphate, 5% ethanol): 1700 µg/mL (≈ 2.03 mM) | solubility at 24 h ([3]; phosphate buffer with ethanol co-solvent, pH 7, aqueous with cosolvent or surfactant or cyclodextrin, pH 7, 20 mM phosphate, 10% ethanol): 2100 µg/mL (≈ 2.51 mM) | solubility at 24 h ([3]; phosphate buffer with ethanol co-solvent, pH 7, aqueous with cosolvent or surfactant or cyclodextrin, pH 7, 50 mM phosphate, 5% ethanol): 2300 µg/mL (≈ 2.75 mM) | solubility at 24 h ([3]; phosphate buffer with ethanol co-solvent, pH 7, aqueous with cosolvent or surfactant or cyclodextrin, pH 7, 50 mM phosphate, 10% ethanol): 3100 µg/mL (≈ 3.7 mM) | solubility at 24 h ([3]; phosphate buffer, pH 5, aqueous buffer, pH 5, 10 mM phosphate, 0% ethanol): 3200 µg/mL (≈ 3.82 mM) | solubility at 24 h ([3]; phosphate buffer, pH 5, aqueous buffer, pH 5, 20 mM phosphate, 0% ethanol): 5200 µg/mL (≈ 6.21 mM) | solubility at 24 h ([3]; phosphate buffer, pH 5, aqueous buffer, pH 5, 50 mM phosphate, 0% ethanol): 7200 µg/mL (≈ 8.6 mM) | solubility at 24 h ([3]; phosphate buffer, pH 6, aqueous buffer, pH 6, 10 mM phosphate, 0% ethanol): 2800 µg/mL (≈ 3.35 mM) | solubility at 24 h ([3]; phosphate buffer, pH 6, aqueous buffer, pH 6, 20 mM phosphate, 0% ethanol): 4200 µg/mL (≈ 5.02 mM) | solubility at 24 h ([3]; phosphate buffer, pH 6, aqueous buffer, pH 6, 50 mM phosphate, 0% ethanol): 6700 µg/mL (≈ 8 mM) | solubility at 24 h ([3]; phosphate buffer, pH 7, aqueous buffer, pH 7, 10 mM phosphate, 0% ethanol): 1400 µg/mL (≈ 1.67 mM) | solubility at 24 h ([3]; phosphate buffer, pH 7, aqueous buffer, pH 7, 20 mM phosphate, 0% ethanol): 1300 µg/mL (≈ 1.55 mM) | solubility at 24 h ([3]; phosphate buffer, pH 7, aqueous buffer, pH 7, 50 mM phosphate, 0% ethanol): 2000 µg/mL (≈ 2.39 mM)

From patent US20070149465A1, “COMPOSITIONS AND METHODS FOR PREVENTION AND TREATMENT OF CACHEXIA” (priority 2005, published 2007)
